Laboratory results published in the RepoRT retention time repository (doi:10.1016/j.chroma.2014.05.003).

Experiment: RP, Agilent ZORBAX Eclipse Plus C18, 50 × 4.6 mm, 1.8 µm, 0.5 mL/min, estimated dead time 1.1 min; A: water + 0.1% formic acid; B: acetonitrile + 0.1% formic acid; gradient (min/%B) 0/10 3/10 25/100 28/100
Conditions: stereoisomer not certain

Row | SMILES | LC retention time
1 | CCN(CC)C(=O)C(C)Oc1cccc2ccccc12 (stereo not given) | 16.3 min
2 | COC1C(OC(C)=O)CC(=O)OC(C)CC=CC=CC(O)C(C)CC(CC=O)C1OC1OC(C)C(OC2CC(C)(O)C(OC(=O)CC(C)C)C(C)O2)C(N(C)C)C1O (stereo not given) | 12 min
3 | COC(=O)NS(=O)(=O)c1ccc(N)cc1 | 5.43 min
4 | CN(C)C1C(=O)C(C(N)=O)=C(O)C2(O)C(=O)C3=C(O)c4c(O)cccc4C(C)(O)C3C(O)C12 (stereo not given) | 6.11 min
5 | CNC(C)Cc1ccc2c(c1)OCO2 (stereo not given) | 5.39 min
